Measured values from patent publication US20240165127A1, “CONTRAST AGENT FOR DIAGNOSIS OF VASCULAR DISEASE CONTAINING GADOLINIUM-BASED COMPOUND AS ACTIVE INGREDIENT AND SYNTHESIS METHOD THEREFOR” (DAEGU CATHOLIC UNIVERSITY INDUSTRY ACADEMIC COOPERATION …, priority 2022, published 2024).
“And” between values parts separate entries of the source, which are not always exact repeats. Equal entries are not always repeated.

Experiments:
[1] = In vitro molar longitudinal relaxivity (r1), 9.4T MRI, RARE method; assay type: physicochemical; settings: 25° C.
Procedure: (§1) To obtain quantitative information on the efficacy of the Gd-DOTA-click-SF probe and Dotarem as MRI contrast agents, the molar longitudinal relaxivities (r1) thereof were analyzed. At 25° C., 3.0T MRI was performed using the inversion recovery method, and 9.4T MRI was performed using the RARE (Rapid Acquisition with Refocused Echoes) method.

[2] = Transmetallation kinetics: stability of Gd(III) complex in presence of Zn(II) ions, ICP/MS; assay type: physicochemical; settings: 1 mM complex, 250 mM ZnCl2 in phosphate buffer, 0 to 48 hours
Procedure: In vivo, the transmetallation of the Gd complex occurs because Gd^3+ ions compete with other endogenous cations and endogenous anions that destabilize the gadolinium complex and shift the dissociation equilibrium toward its free components. For this reason, the in vitro stability of the Gd(III) complex should be investigated in the presence of Zn(II) ions. 8 μL of a solution of 250 mM ZnCl2 in phosphate buffer was added to 1.5 mL of 1 mM Gd-DOTA-click-SF complex and the mixture was stirred. Thereafter, the solution was collected at 0, 2, 4, 6, 8, 24, and 48 hours and filtered. […] To compare the stability of Gd-DOTA-click-SF with that the clinical contrast agent Dotarem, the same procedure was repeated three times.

endothelial C166 cells = assay: In vitro cell viability, CCK-8 assay; assay type: cell-based; settings: 0.01 to 0.1 mM, 24 hours
Procedure: The cytotoxicity of the Gd-DOTA click-SF probe was assessed against macrophage RAW264.7 cells and endothelial C166 cells using the CCK-8 assay according to the instructions provided by the manufacturer. RAW264.7 cells and endothelial C166 cells were cultured in DMEM containing 10% FBS and 1% penicillin-streptomycin (10000 U/ml). 2.5×10^4 RAW 264.7 cells and 3×10^3 C166 cells per well in 100 μL of DMEM well were seeded in 96-well plates. The cells were cultured at 37° C. for 24 hours in a humidified atmosphere containing 5% CO2, and then for comparison, each of the Gd-DOTA-click-SF probe and Dotarem was added thereto at concentrations of 0.01, 0.025, 0.05, 0.075, and 0.1 mM, followed by incubation at 37° C. for 24 hours. Thereafter, the cells were treated with 10 μl of CCK-8 solution and further cultured for 2 hours at 37° C., and the absorbance of each well was measured at 450 nm using a microplate reader.

elastase activity = assay: Ex vivo T1-weighted MRI, CNR and ICP/MS gadolinium content of aortas from rats with induced abdominal aortic aneurysm (AAA) and from healthy rats; set-up: species or system Sprague-Dawley (SD) rats; settings: for T1-signal intensity in T1-weighted MRI: immersed at 1.28 mM for 1 hour, washed 3 times with PBS
Source text: As experimental animals, 7-week-old Sprague-Dawley (SD) rats were used. The rats were maintained on a 12-hour light-dark cycle with free access to water and feed for one week of acclimatization. Then, the rats were randomly divided into a normal control group and an experimental group (aortic aneurysm group), and each group was further divided into a Dotarem-administered group and a Gd-DOTA-click-SF-administered group. Accordingly, the rats were divided into a total of 4 groups, each consisting of 4 animals.
To induce an abdominal aortic aneurysm, rats were anesthetized by inhalation with 2 to 2.5% isoflurane, and then their abdomen was incised to expose the aortic branches. Next, 300 μL of 12U porcine pancreatic elastase was perfused for 10 minutes.
After 5 weeks, the aorta with induced abdominal aortic aneurysm was harvested, immersed in Dotarem or the Gd-DOTA-click-SF of the present disclosure at 1.28 mM for 1 hour under shaking. Then, it was taken out and washed 3 times with PBS. Finally, the samples were placed in PCR tubes filled with PBS and were examined by T1-weighted MRI. The same procedure was also applied to the aorta from the healthy normal control group, which was immersed in Dotarem or the Gd-DOTA-click-SF of the present disclosure at 1.28 mM for 1 hour under shaking. Then, it was taken out and washed 3 times with PBS. Finally, the samples were placed in PCR tubes filled with PBS and were examined by T1-weighted MRI.
The CNRs of the MRI results for the four groups, identified in Example 7, were examined, and the concentrations of gadolinium were measured using ICP/MS (ICP/MS 7700, Agilent, USA).

[3] = In vitro molar longitudinal relaxivity (r1), 3.0T MRI, inversion recovery method; assay type: physicochemical; settings: 25° C., concentrations 0.01, 0.02, 0.04, 0.06, 0.08, and 0.1 mM
Procedure: as §1

9.4T r1 (molar longitudinal relaxivity) ([1]; concentrations 0.01, 0.02, 0.04, 0.06, 0.08, and 0.1 mM): 4.647 mM^−1s^−1 and 4.647^a mM^−1s^−1 | 9.4T r1 (molar longitudinal relaxivity) ([1]; concentrations 0.04, 0.08, 0.16, 0.32, and 0.64 mM): 5.064 mM^−1s^−1 and 5.064^b mM^−1s^−1 | 3.0T r1 (molar longitudinal relaxivity) [3]: 2.105 mM^−1s^−1 and 2.211^a mM^−1s^−1
Compound: CNC[C@H](O)[C@@H](O)[C@H](O)[C@H](O)CO.O=C([O-])CN1CCN(CC(=O)[O-])CCN(CC(=O)O)CCN(CC(=O)[O-])CC1.[Gd+3] [Dotarem]
stability of Gd(III) complex (kinetic inertness, transmetallation) [2]: very stable in the presence of Zn(II) ions without transmetallation | cell viability / cytotoxicity (endothelial C166 cells): non-cytotoxic | T1-signal intensity in T1-weighted MRI (elastase activity; AAA aorta ex vivo): did not show high signal intensity | binding to the arterial wall (elastase activity; ex vivo aortas, after washing with PBS): very low | T1-signal intensity in T1-weighted MRI (elastase activity; healthy normal aorta ex vivo): did not show high signal intensity
